# Measured values published in patent publication US4929751A, “Vinyl tricarbonyl compounds and methods of making the same” (Yale University, priority 1987, dated 1990).
# pIC50: −log10 of the molar value. Like-named read-outs stand apart in the source and are kept apart here.
# Key:
# Test in all cases: growth inhibition of tumor cell line
# Format in all cases: cell-based
# [1] = system: DLD-1 (colon); conditions: Homo sapiens
# Source text: (§1) t-Butyl 2,3-dioxo-pent-4-enoate hydrate (A) was contacted with various cell lines as indicated on Table 1 hereinbelow in the column designated as "CELL" or "TUMOR". […]
# (§2) Table 1 reports and illustrates the results obtained by testing t-butyl 2,3-dioxo-pent-4-enoate hydrate. The concentration of this compound found to inhibit the growth of each cell line listed under "CELL" by 50% is reported under "LOG(IC50)" as the logarithm of the concentration. The units of concentration are either molarity in which case an "M" is shown in parentheses next to the LOG(IC50) label, or micrograms per ml, in which case a "W" (for weight) is shown in parenthesis. The cell line names are grouped by disease type and the disease type names are listed on the far left.
# [2] = system: EKV-X (nonsmall cell lung cancer); conditions: Homo sapiens, EKVX
# Source text: as §1, §2
# [3] = system: H146 (small cell lung cancer); conditions: Homo sapiens, NCI-H146
# Source text: as §1, §2
# [4] = system: H460 (nonsmall cell lung cancer); conditions: Homo sapiens, NCI-H460, logarithm of the concentration inhibiting growth by 50%
# Source text: as §1, §2
# [5] = system: H82 (small cell lung cancer)
# Source text: as §1, §2
# [6] = system: LOX (melanoma)
# Source text: as §1, §2
# [7] = system: P388; conditions: Mus musculus
# Source text: as §1, §2
# [8] = logarithm of the concentration inhibiting growth by 50%, read-out: LOG(IC50) (converted)
structure (smiles),measurement,setting,value
"C=CC(=O)C(O)(O)C(=O)OC(C)(C)C [t-butyl 2,3-dioxo-pent-4-enoate hydrate]",IC90,[1],187 µM
same,IC50,[1]; [8],39.8 µM
same,pIC50,[1]; read-out: IC-50 MEAN,4.42
same,IC50,[2]; [8],200 µM
same,pIC50,[2]; read-out: IC-50 MEAN,3.65
same,IC50,"[3]; H146, logarithm of the concentration inhibiting growth by 50%, read-out: LOG(IC50) (converted)",126 µM
same,pIC50,[3]; read-out: IC-50 MEAN,3.91
same,pIC50,[4],< 3.60
same,IC50,"[5]; H82, logarithm of the concentration inhibiting growth by 50%, read-out: LOG(IC50) (converted)",39.8 µM
same,IC90,"[5]; Homo sapiens, NCI-H82",172 µM
same,pIC50,"[5]; Homo sapiens, NCI-H82, read-out: IC-50 MEAN",4.44
same,IC90,[6],258 µM
same,IC50,[6]; [8],100 µM
same,pIC50,[6]; read-out: IC-50 MEAN,3.99
same,IC90,[7],248 µM
same,IC50,[7]; [8],100 µM
same,pIC50,[7]; read-out: IC-50 MEAN,3.94
